Reference: US10711007B2, “Selective inhibitors of protein arginine methyltransferase 5 (PRMT5)” (Prelude Therapeutics, Incorporated, priority 2018, dated 2020)

Key:
[1] = system: sDMA marks (SmD3me2s) in U-87 MG cells; test: Western blotting for symmetric di-methyl arginine (sDMA) marks in U-87 MG cells; type: cell-based; conditions: Homo sapiens, 72 h; U-87 MG cell line, 3 days
Procedure: Cell Treatment and Western Blotting for Detecting Symmetric Di-Methyl Arginine (sDMA) Marks
Compound Titration and Cell Culture:
Compounds were dissolved in DMSO to make 10 mM stock and 3-fold series dilutions were further conducted to make working stocks top at 1 mM. Granta-519 cells were maintained in PRMI 1640 (Corning Cellgro, Catalog #: 10-040-CV) supplemented with 10% v/v FBS (GE Healthcare, Catalog #: SH30910.03) and U-87 MG cells were maintained in DMEM (Corning Cellgro, Catalog #: 10-013-CV) with 10% FBS and 2 mM Glutamin (Corning Cellgro, Catalog #25005CV).
To determine enzyme inhibition IC50 values in Granta-519 and U-87 MG cells using Western Blot analysis. One day before experiment, Granta-519 cells were passaged to a density of 0.5×10^6 cells/ml. U-87 MG cells were trypsinized and 4×10^5 cells were seeded into 6-well plates and allow to grow overnight. The next day, Granta-519 cells were spun down at 1,500 rpm for 4 min, resuspend in fresh medium at 0.5×10^6 cells/ml and 3 mL of culture (1.5×10^6 cells) were seeded into 6 well plate. Eight-point, 3-fold serial dilutions of compound working stocks were added to cells (3 ul, 1:1,000 dilution, DMSO concentration was 0.1%; final top concentration at 1 uM) and incubated for 3 days. Cells incubated with DMSO was used as a vehicle control.
Cells were harvested 3 days later, resuspended in 15 uL PBS, lysed in 4% SDS, and homogenized by passing through homogenizer column (Omega Biotek, Catalog #: HCR003). Total protein concentrations were determined by BCA assay (ThermoFisher Scientific, Catalog #: 23225). Lysates were mixed with 5× Laemmli buffer and boiled for 5 min. Forty ug of total protein was separated on SDS-PAGE gels (Bio-Rad, catalog #: 4568083, 4568043), transferred to PVDF membrane, blocked with 5% dry milk (Bio-Rad, Catalog #: 1706404) in TBS with 0.1% v/v Tween 20 (TBST) for 1 hour at room temperature (RT), and incubated with primary antibodies (sDMA: Cell signaling, Catalog #: 13222, 1:3,000; β-Actin: sigma, Catalog #: 1:5,000) in 5% dry milk in TBST at 4° C. overnight. The next day, membranes were washed with TBST, 5×5 min, and incubated with HRP conjugated seconded antibody (GE Healthcare; Catalog #: NA934-1ML, NA931-1ML; 1:5,000) for 2 hours at RT, followed by 5×5 min washes with TBST, and incubation with ECL substrates (Bio-Rad, Catalog #: 1705061, 1705062). Chemiluminescent signal was captured with Fluochem HD2 imager (Proteinsimple). SmD3me2s bands were quantified by ImageJ. Signals were normalized to β-Actin and DMSO control. IC50 values were calculated using Graphpad Prism ([Inhibitor] vs. normalized response-Variable slope).

U-87 MG cells = test: Cell proliferation assay (CCK-8, day 10) in U-87 MG cells; type: cell-based; conditions: Homo sapiens, 240 h, U-87 MG cell line, read-out: Prolif. IC50
Procedure: Cell Proliferation Assay to Determine IC50 in Granta-519 and U-87 MG Cells
One day before experiment, Granta-519 cells were passaged to a density of 0.5×10^6 cells/ml. U-87 MG cells were trypsinized and 2,000 cells were seeded into 96-well plates and allow to grow overnight. On the day of experiment (day 0), Granta-519 Cells were spun down at 1,500 rpm for 4 min, resuspended in fresh medium to 0.5×10^6 cells/ml and 190 ul of cells were added to 96 well plates. For U-87 MG cells, old medium was removed and replaced with 190 uL fresh medium. Compound working stocks were first diluted at 1:50 with fresh medium in 96 well plate and 10 μL of diluted drugs were added to 96 well plates containing cells and incubated for 3 days. DMSO was used a vehicle control.
One day 3, 50 uL of Granta-519 cells were transferred to a new 96-well plate and 140 uL fresh medium was added. For U-87 MG cells, old medium was removed and replaced with 190 uL fresh medium. Compound working stocks were freshly diluted at 1:50 with medium and 10 μL of diluted drugs were added to cells and grow for 3additional days. The same process was repeated on day 6. Cells were allowed to grow for additional 4 days.
On day 10, 100 uL Granta-519 cells were transferred to a new 96 well plate and 10 μL of Cell Counting Kit-8 (CCK-8, Jojindo, CK04-13) solution was added. For U-87 MG cells, old medium was removed and replaced with 100 uL fresh medium and 10 uL CCK-8 solution was added. Plates were incubated in CO2 incubator for 2 hours (Granta-519 cells) or 30 min (U-87 MG cells) and OD450 values were measured with a microplate reader (iMark microplate reader, Bio-Rad). Percentage of viable cells, relative to DMSO vehicle control, were calculated and plotted in Graphpad Prism ([Inhibitor] vs. normalized response-Variable slope) to determine proliferation IC50 values on day 10.

PRMT5/MEP50 complex = PRMT5/MEP50 complex (Homo sapiens (Human), UniProt O14744); test: Biochemical assay: PRMT5/MEP50 methylation of histone H4 based AcH4-23, SPA readout; conditions: PRMT5/MEP50 2.5 nM, 300 nM AcH4-23, 1 μM 3H-SAM
Procedure: Biochemical Assay Protocol
Compounds were solubilized and 3-fold diluted in 100% DMSO. […] Standard reactions were performed in a total volume of 30 μl in assay buffer, with 300 nM histone H4 based AcH4-23 (Anaspec: AS-65002) as substrate. To this was added the PRMT5/MEP50 complex diluted to provide a final assay concentration of 2.5 nM and the compounds were allowed to preincubate for 20 minutes at 37° C. The reaction was initiated by adding S-[3H-methyl]-adenosyl-L-methionine (PerkinElmer: NET155001MC) to final concentration of 1 μM. Following a 30 minutes incubation at 37° C., the reaction was stopped by adding 25 μL of 8M Guanidine HCl. Prepare streptavidin YSI SPA beads (Perkinelmer: RPNQ0012) at 0.3 mg/mL in assay buffer. To each reaction, add 150 μL of SPA beads suspension, and incubated while shaking at room temperature for 30 minutes. The plate was centrifuged at 100×g for 30 second before reading in a scintillation counter. IC50 values were determined by fitting the data to the standard 4 parameters with Hill Slope using GraphPad Prism software.

PRMT5/MEP50 complex, sequence (O14744 whole entry): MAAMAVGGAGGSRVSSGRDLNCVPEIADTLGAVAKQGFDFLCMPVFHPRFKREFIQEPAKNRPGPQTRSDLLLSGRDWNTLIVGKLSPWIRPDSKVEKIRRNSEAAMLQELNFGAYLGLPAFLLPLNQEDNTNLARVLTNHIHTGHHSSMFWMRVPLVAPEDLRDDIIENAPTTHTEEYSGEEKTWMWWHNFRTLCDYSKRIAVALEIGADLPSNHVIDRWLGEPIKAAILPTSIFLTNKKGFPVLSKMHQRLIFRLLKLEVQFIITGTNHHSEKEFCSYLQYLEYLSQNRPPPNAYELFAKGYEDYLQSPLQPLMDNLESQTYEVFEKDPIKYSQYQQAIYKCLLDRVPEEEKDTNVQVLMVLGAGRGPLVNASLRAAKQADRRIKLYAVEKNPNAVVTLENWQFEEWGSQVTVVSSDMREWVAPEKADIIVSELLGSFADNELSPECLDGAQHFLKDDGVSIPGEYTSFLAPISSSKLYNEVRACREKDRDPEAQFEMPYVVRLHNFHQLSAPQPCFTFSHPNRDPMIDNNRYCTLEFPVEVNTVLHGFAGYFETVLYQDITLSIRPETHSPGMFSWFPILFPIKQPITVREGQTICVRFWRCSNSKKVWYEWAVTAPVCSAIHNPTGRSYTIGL
PRMT5/MEP50 complex, sequence (Q9BQA1 whole entry partner): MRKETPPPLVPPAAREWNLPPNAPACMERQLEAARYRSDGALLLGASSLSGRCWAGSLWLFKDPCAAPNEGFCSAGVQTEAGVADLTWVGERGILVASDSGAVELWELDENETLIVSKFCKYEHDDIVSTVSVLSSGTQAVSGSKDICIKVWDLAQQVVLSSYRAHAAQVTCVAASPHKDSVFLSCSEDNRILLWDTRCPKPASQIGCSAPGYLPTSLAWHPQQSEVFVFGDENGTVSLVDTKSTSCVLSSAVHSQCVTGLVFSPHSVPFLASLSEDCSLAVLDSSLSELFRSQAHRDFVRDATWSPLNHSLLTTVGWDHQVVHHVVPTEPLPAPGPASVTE

Row | IC50 [1] [µM] | IC50 (U-87 MG cells) [µM] | IC50 (PRMT5/MEP50 complex) [µM] | SMILES
1 | 0.0176 | 0.054 | 0.0048 | Cc1ncnc2c1ccn2[C@@H]1O[C@H]([C@@H]2OCCc3cc(Cl)ccc32)[C@@H](O)[C@H]1O [Example 22, (2S,3S,4R,5R)-2-((R)-6-chloroisochroman-1-yl)-5-(4-methyl-7H-pyrrolo[2,3-d]pyrimidin-7-yl)tetrahydrofuran-3,4-diol]
2 | 0.0111 | 0.0185 | 0.0016 | Nc1ncnc2c1ccn2[C@@H]1O[C@H]([C@@H]2OC[C@H](F)c3cc(Cl)ccc32)[C@@H](O)[C@H]1O [Example 95, (2R,3R,4S,5S)-2-(4-amino-7H-pyrrolo[2,3-d]pyrimidin-7-yl)-5-((1R,4R)-6-chloro-4-fluoroisochroman-1-yl)tetrahydrofuran-3,4-diol]
3 | 0.0114 | 0.0333 | 0.0022 | Nc1ncnc2c1ccn2[C@@H]1O[C@H]([C@@H]2OCCc3cc(Cl)sc32)[C@@H](O)[C@H]1O [Example 90, (2R,3R,4S,5S)-2-(4-amino-7H-pyrrolo[2,3-d]pyrimidin-7-yl)-5-((S)-2-chloro-4,7-dihydro-5H-thieno[2,3-c]pyran-7-yl)tetrahydrofuran-3,4-diol]
4 | 0.0054 | 0.013 | 0.002 | Nc1ncnc2c1c(F)cn2[C@@H]1O[C@H]([C@@H]2OCCc3cc(Cl)ccc32)[C@@H](O)[C@H]1O [Example 86, (2R,3R,4S,5S)-2-(4-amino-5-fluoro-7H-pyrrolo[2,3-d]pyrimidin-7-yl)-5-((R)-6-chloroisochroman-1-yl)tetrahydrofuran-3,4-diol]
5 | 0.0185 | 0.06 | 0.0016 | Nc1ncnc2c1ccn2[C@@H]1O[C@H]([C@@H]2OCCc3cc(Cl)c(Cl)cc32)[C@@H](O)[C@H]1O [Example 88, (2R,3R,4S,5S)-2-(4-amino-7H-pyrrolo[2,3-d]pyrimidin-7-yl)-5-((R)-6,7-dichloroisochroman-1-yl)tetrahydrofuran-3,4-diol]
6 | 0.0276 | 0.094 | 0.0044 | Nc1ncnc2c1ccn2[C@@H]1O[C@H]([C@@H]2OCCc3c2ccc(Cl)c3F)[C@@H](O)[C@H]1O [Example 84, (2R,3R,4S,5S)-2-(4-amino-7H-pyrrolo[2,3-d]pyrimidin-7-yl)-5-((R)-6-chloro-5-fluoroisochroman-1-yl)tetrahydrofuran-3,4-diol]
7 | 0.0517 | 0.117 | 0.0047 | Cc1ncnc2c1ccn2[C@@H]1O[C@H]([C@@H]2OCOc3c2ccc(F)c3F)[C@@H](O)[C@H]1O [Example 97, (2S,3S,4R,5R)-2-((R)-7,8-difluoro-4H-benzo[d][1,3]dioxin-4-yl)-5-(4-methyl-7H-pyrrolo[2,3-d]pyrimidin-7-yl)tetrahydrofuran-3,4-diol]
8 |  | 0.078 | 0.00298 | Nc1ncnc2c1ccn2[C@@H]1O[C@H]([C@@H]2OCCc3c(Cl)cccc32)[C@@H](O)[C@H]1O [Example 72, (2R,3R,4S,5S)-2-(4-amino-7H-pyrrolo[2,3-d]pyrimidin-7-yl)-5-((R)-5-chloroisochroman-1-yl)tetrahydrofuran-3,4-diol]
9 | 0.12 | 0.509 | 0.0077 | Cc1ncnc2c1ccn2[C@@H]1O[C@H]([C@@H]2OCCc3cc(Cl)c(Cl)cc32)[C@@H](O)[C@H]1O [Example 87, (2S,3S,4R,5R)-2-((R)-6,7-dichloroisochroman-1-yl)-5-(4-methyl-7H-pyrrolo[2,3-d]pyrimidin-7-yl)tetrahydrofuran-3,4-diol]
10 |  | 0.066 | 0.00728 | Cc1ncnc2c1ccn2[C@@H]1O[C@H]([C@@H]2OCCc3cc(F)c(F)cc32)[C@@H](O)[C@H]1O [Example 74, (2S,3S,4R,5R)-2-((R)-6,7-difluoroisochroman-1-yl)-5-(4-methyl-7H-pyrrolo[2,3-d]pyrimidin-7-yl)tetrahydrofuran-3,4-diol]
11 | 0.109 | 0.181 | 0.0149 | CNc1ncnc2c1ccn2[C@@H]1O[C@H]([C@@H]2OCCc3cc(Cl)ccc32)[C@@H](O)[C@H]1O [Example 69, (2S,3S,4R,5R)-2-((R)-6-chloroisochroman-1-yl)-5-(4-(methylamino)-7H-pyrrolo[2,3-d]pyrimidin-7-yl)tetrahydrofuran-3,4-diol]
12 | 0.173 | 0.304 | 0.0147 | Cc1ncnc2c1c(F)cn2[C@@H]1O[C@H]([C@@H]2OCCc3cc(Cl)ccc32)[C@@H](O)[C@H]1O [Example 85, (2S,3S,4R,5R)-2-((R)-6-chloroisochroman-1-yl)-5-(5-fluoro-4-methyl-7H-pyrrolo[2,3-d]pyrimidin-7-yl)tetrahydrofuran-3,4-diol]
13 |  | 0.339 | 0.0151 | Cc1ncnc2c1ccn2[C@@H]1O[C@H]([C@@H]2OCCc3c(Cl)cccc32)[C@@H](O)[C@H]1O [Example 75, (2S,3S,4R,5R)-2-((R)-5-chloroisochroman-1-yl)-5-(4-methyl-7H-pyrrolo[2,3-d]pyrimidin-7-yl)tetrahydrofuran-3,4-diol]

Row | SMILES | IC50 [1] [µM] | IC50 (U-87 MG cells) [µM] | IC50 (PRMT5/MEP50 complex) [µM]
14 | Nc1ncnc2c1ccn2[C@@H]1O[C@H]([C@@H]2OCCc3cc(F)c(F)cc32)[C@@H](O)[C@H]1O [Example 73, (2R,3R,4S,5S)-2-(4-amino-7H-pyrrolo[2,3-d]pyrimidin-7-yl)-5-((R)-6,7-difluoroisochroman-1-yl)tetrahydrofuran-3,4-diol] |  | 0.0091 | 0.00145
15 | Nc1ncnc2c1ccn2[C@@H]1O[C@H]([C@@H]2OCc3cc(F)c(F)cc32)[C@@H](O)[C@H]1O [Example 4, (2R,3R,4S,5S)-2-(4-amino-7H-pyrrolo[2,3-d]pyrimidin-7-yl)-5-((R)-5,6-difluoro-1,3-dihydroisobenzofuran-1-yl)tetrahydrofuran-3,4-diol] | 0.031 | 0.095 | 0.0015
